Data taken from US9187465B2, “Oxazole tyrosine kinase inhibitors” (Sareum Limited, priority 2007, dated 2015).
Like-named read-outs stand apart in the source and are kept apart here.

What was measured:
human FLT4 = target: T1, human FLT4 (Homo sapiens, UniProt P35916); assay: FLT4 kinase assay (DELFIA enzyme inhibition); type: biochemical
T1 construct: a construct expressing the human FLT4 (789-1207) with an amino terminal GST tag; host or cells: Sf9 insect cells (baculovirus)
Experimental: A GST-kinase fusion protein of 70 KDa was produced using sf9 baculovirus expression system, with a construct expressing the human FLT4 (789-1207) with an amino terminal GST tag. The protein was purified by affinity chromatography using glutathione-agarose followed by separation on a gel filtration column.
FLT4 enzyme activity is determined using a Dissociation Enhanced Lanthanide Fluorescent Immunoassay (DELFIA) with a peptide substrate derived from the MET (Tyr 1253) peptide […] with a core sequence […].
The amount of phosphorylated peptide produced is detected by means of a phospho-Tyrosine specific Europium-labelled antibody using Time-Resolved Fluorescence at Excitation 360-35 nm and Emission 620-35 nm.
Assay reactions are set up in a 25 uL final volume on a 96 well plate. […] The reaction is allowed to proceed for 30 minutes at room temperature before stopping with 100 uL Stop solution comprising of 100 mM EDTA, 1×BSA blocker in TBS (Perbio) and 0.05% Surfact-Amps20 (Perbio).
The stopped reaction is transferred to a black 96-well Neutravidin-coated plate (Perbio) and incubated for 30 minutes to capture the biotinylated peptide substrate. After washing wells 3 times with 200 uL TBS/T buffer, Anti-Phospho-Tyr-100 antibody labelled with Eu—N1 (Perkin Elmer AD0159) is added to all wells for 60 minutes at room temperature. After a repeat washing step, DELFIA Enhancement solution (Perkin Elmer) is added to all wells for 5 minutes and the fluorescence measured on a plate reader Analyst HT (Molecular Devices).
The % inhibition of the activity is calculated and plotted in order to determine the concentration of test compound required to inhibit 50% of the enzyme activity (IC50).

human Aurora A = target: T2, human Aurora A (Homo sapiens, UniProt O14965); assay: Aurora A kinase assay (DELFIA enzyme inhibition); type: biochemical
T2 construct: Histidine tag (N); host or cells: Sf9 insect cells (baculovirus)
T2 sequence (O14965 1-403): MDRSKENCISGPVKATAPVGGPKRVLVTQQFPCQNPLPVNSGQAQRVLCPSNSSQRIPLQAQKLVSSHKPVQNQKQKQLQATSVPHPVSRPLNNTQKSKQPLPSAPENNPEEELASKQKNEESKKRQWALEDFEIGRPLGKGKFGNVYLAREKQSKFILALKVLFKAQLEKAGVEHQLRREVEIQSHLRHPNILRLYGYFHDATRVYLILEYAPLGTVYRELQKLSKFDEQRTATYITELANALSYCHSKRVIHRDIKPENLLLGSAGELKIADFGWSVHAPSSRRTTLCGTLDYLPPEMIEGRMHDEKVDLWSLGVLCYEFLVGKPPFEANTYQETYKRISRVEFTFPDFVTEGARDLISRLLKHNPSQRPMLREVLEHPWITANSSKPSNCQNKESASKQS
Experimental: The protein was purified by one-step affinity chromatography using nickel-agarose […]
Assay reactions are set up in a 25 uL final volume on a 96 well plate. […] The reaction is allowed to proceed for 30 minutes at room temperature before stopping with 100 μL Stop solution comprising of 100 mM EDTA, 1×BSA blocker in TBS (Perbio) and 0.05% Surfact-Amps20 (Perbio).
The stopped reaction is transferred to a black 96-well Neutravidin-coated plate (Perbio) and incubated for 30 minutes to capture the biotinylated peptide substrate. […] After repeating the washing step, the plate is further incubated for one hour with Europium-labelled anti-rabbit antibody (Perkin Elmer AD0105). The wash step is repeated for a final time before DELFIA Enhancement solution (Perkin Elmer) is added to all wells for 5 minutes and the fluorescence measured on a plate reader Analyst HT (Molecular Devices).

T1 sequence (P35916 789-1207): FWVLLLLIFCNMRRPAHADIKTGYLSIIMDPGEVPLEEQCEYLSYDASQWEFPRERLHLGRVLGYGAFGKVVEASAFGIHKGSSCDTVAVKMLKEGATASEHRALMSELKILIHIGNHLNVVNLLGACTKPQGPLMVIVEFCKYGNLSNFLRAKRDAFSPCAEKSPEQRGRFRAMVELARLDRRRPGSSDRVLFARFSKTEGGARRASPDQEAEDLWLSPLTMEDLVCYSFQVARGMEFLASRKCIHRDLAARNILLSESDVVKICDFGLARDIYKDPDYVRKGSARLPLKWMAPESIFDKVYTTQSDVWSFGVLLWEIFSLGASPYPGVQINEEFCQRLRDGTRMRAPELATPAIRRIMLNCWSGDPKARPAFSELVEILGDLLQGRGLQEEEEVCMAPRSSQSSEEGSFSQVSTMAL

Compound	IC50 (human FLT4; read-out: FLT4 IC50)	IC50 (human Aurora A; read-out: Aurora A IC50)	IC50 (human FLT4)	IC50 (human Aurora A)
COc1ccc(-c2nc(-c3c[nH]c4ccccc34)[nH]c2C(N)=O)cc1 [Example A-13, 2-(1H-indol-3-yl)-4-(4-methoxyphenyl)-1H-imidazole-5-carboxamide]	< 10 µM	< 100 µM	–	–
NC(=O)c1nc(-c2c(F)cccc2F)oc1-c1ccc(NCCN2CCCCC2)cc1 [Example F-32, 2-(2,6-difluorophenyl)-5-(4-(2-(piperidin-1-yl)ethylamino)phenyl)oxazole-4-carboxamide]	< 10 µM	< 10 µM	–	–
NC(=O)c1nc(-c2c(F)cccc2F)oc1-c1ccncc1 [Example F-8, 2-(2,6-difluorophenyl)-5-(pyridin-4-yl)oxazole-4-carboxamide]	< 10 µM	< 10 µM	–	–
NC(=O)c1nc(-c2c(F)cccc2F)oc1-c1ccc(NCCN2CCOCC2)cc1 [Example F-34, 2-(2,6-difluorophenyl)-5-(4-(2-morpholinoethylamino)phenyl)oxazole-4-carboxamide]	< 10 µM	< 10 µM	–	–
NC(=O)c1[nH]c(-c2c(F)cccc2F)nc1-c1ccccn1 [Example C-1, 2-(2,6-difluorophenyl)-4-(pyridin-2-yl)-1H-imidazole-5-carboxamide]	< 100 µM	< 100 µM	–	–
NC(=O)c1nc(-c2c(F)cccc2F)oc1-c1cccc(C(=O)N2CCCCC2)c1 [Example F-31, 2-(2,6-Difluorophenyl)-5-(3-(piperidine-1-carbonyl)phenyl)oxazole-4-carboxamide]	< 10 µM	< 100 µM	–	–
COc1ccc(-c2nc(-c3csc4ccccc34)[nH]c2C(N)=O)cc1 [Example B-3, 2-(benzo[b]thiophen-3-yl)-4-(4-methoxyphenyl)-1H-imidazole-5-carboxamide]	< 100 µM	< 100 µM	–	–
NC(=O)c1[nH]c(-c2c(F)cccc2F)nc1-c1cccs1 [Example A-16, 2-(2,6-difluorophenyl)-4-(thiophen-2-yl)-1H-imidazole-5-carboxamide]	< 10 µM	< 100 µM	–	–
CN1C2CCC1CC(NC(=O)c1ccc(Nc3oc(-c4c(F)cccc4F)nc3C(N)=O)cc1)C2 (stereo not shown) [Example U-11, 5-(4-((8-methyl-8-aza-bicyclo[3.2.1]octan-3-yl)carbamoyl)phenylamino)-2-(2,6-difluorophenyl)oxazole-4-carboxamide]	–	–	< 10 µM	< 10 µM
COc1ccc(-c2nc(-c3ccc(C)cc3)[nH]c2C(N)=O)cc1 [Example A-8, 4-(4-methoxyphenyl)-2-p-tolyl-1H-imidazole-5-carboxamide]	< 100 µM	< 100 µM	–	–
COc1ccc(-c2nc(-c3ccncc3)[nH]c2C(N)=O)cc1 [Example B-1, 4-(4-methoxyphenyl)-2-(pyridin-4-yl)-1H-imidazole-5-carboxamide]	< 100 µM	< 100 µM	–	–
COc1ccc(-c2nc(-c3ccccc3C)[nH]c2C(N)=O)cc1 [Example A-6, 4-(4-methoxyphenyl)-2-o-tolyl-1H-imidazole-5-carboxamideHH]	< 100 µM	< 100 µM	–	–

Continued, in another order:

IC50 (human FLT4; read-out: FLT4 IC50)	IC50 (human Aurora A; read-out: Aurora A IC50)	Compound	IC50 (human FLT4)	IC50 (human Aurora A)
< 10 µM	< 10 µM	NC(=O)c1nc(-c2c(F)cccc2F)oc1Nc1ccc(C(=O)N[C@H]2CCNC2)cc1 [Example U-7, (S)-2-(2,6-difluorophenyl)-5-(4-(pyrrolidin-3-ylcarbamoyl)phenylamino)oxazole-4-carboxamide]	–	–
< 10 µM	< 10 µM	NC(=O)c1nc(-c2c(F)cccc2F)oc1Nc1ccc(C(=O)N[C@H]2CCCNC2)cc1 [Example Q-54, (S)-2-(2,6-difluorophenyl)-5-(4-(piperidin-3-ylcarbamoyl)phenylamino)oxazole-4-carboxamide]	–	–
< 10 µM	< 10 µM	CCCN(CCO)CCOc1ccc(-c2oc(-c3c(F)cccc3F)nc2C(N)=O)cc1 [Example S-16, 2-(2,6-difluorophenyl)-5-(4-(2-((2-hydroxyethyl)(propyl)amino)ethoxy)phenyl)oxazole-4-carboxamide]	–	–
< 10 µM	< 10 µM	NC(=O)c1nc(-c2cccc3[nH]ncc23)oc1Nc1ccc(N2CCNCC2)cc1 [Example Q-59, 2-(1H-indazol-4-yl)-5-(4-(piperazin-1-yl)phenylamino)oxazole-4-carboxamide]	–	–
< 10 µM	< 10 µM	NC(=O)c1nc(-c2c(F)cccc2F)oc1-c1ccc(OCC2CCNCC2)cc1 [Example S-14, 2-(2,6-difluorophenyl)-5-(4-(piperidin-4-ylmethoxy)phenyl)oxazole-4-carboxamide]	–	–
< 10 µM	< 10 µM	NCC1CCN(c2ccc(Nc3oc(-c4c(F)cccc4F)nc3C(N)=O)cc2)CC1 [Example Q-18, 5-(4-(4-(aminomethyl)piperidin-1-yl)phenylamino)-2-(2,6-difluorophenyl)oxazole-4-carboxamide]	–	–
< 100 µM	< 100 µM	COc1cccc(Nc2oc(-c3c(F)cccc3F)nc2C(N)=O)c1 [Example Q-6, 2-(2,6-difluorophenyl)-5-(3-methoxyphenylamino)oxazole-4-carboxamide]	–	–
< 10 µM	< 10 µM	NC(=O)c1nc(-c2c(F)cccc2F)oc1Nc1ccc(N2CCC(N)CC2)cc1 [Example Q-17, 5-(4-(4-aminopiperidin-1-yl)phenylamino)-2-(2,6-difluorophenyl)oxazole-4-carboxamide]	–	–
< 10 µM	< 100 µM	NC(=O)c1nc(-c2c(F)cccc2F)oc1Nc1ccc(OC(F)(F)F)cc1 [Example Q-42, 2-(2,6-difluorophenyl)-5-(4-(trifluoromethoxy)phenylamino)oxazole-4-carboxamide]	–	–
< 10 µM	< 10 µM	NC(=O)c1nc(-c2c(F)cccc2F)oc1-c1ccc(OCCNCCO)cc1 [Example S-21, 2-(2,6-difluorophenyl)-5-(4-(2-(2-hydroxyethylamino)ethoxy)phenyl)oxazole-4-carboxamide]	–	–
< 100 µM	< 100 µM	NC(=O)c1nc(-c2c(F)cccc2F)oc1Nc1ccc2c(c1)OCO2 [Example Q-41, 5-(benzo[d][1,3]dioxol-5-ylamino)-2-(2,6-difluorophenyl)oxazole-4-carboxamide]	–	–
< 10 µM	< 100 µM	CS(=O)(=O)c1ccc(Nc2oc(-c3c(F)cccc3F)nc2C(N)=O)c(F)c1 [Example Q-43, 2-(2,6-difluorophenyl)-5-(2-fluoro-4-(methylsulfonyl)phenylamino)oxazole-4-carboxamide]	–	–
< 10 µM	< 10 µM	NC(=O)c1nc(-c2c(F)cccc2F)oc1-c1ccc(OCCN2CCC(CO)CC2)cc1 [Example S-18, 2-(2,6-difluorophenyl)-5-(4-(2-(4-(hydroxymethyl)piperidin-1-yl)ethoxy)phenyl)oxazole-4-carboxamide]	–	–
< 10 µM	< 10 µM	COc1ccc(-c2oc(-c3cc[nH]n3)nc2C(N)=O)cc1 [Example N-1, 5-(4-methoxyphenyl)-2-(1H-pyrazol-5-yl)oxazole-4-carboxamide]	–	–
< 10 µM	< 10 µM	Cc1ccccc1Nc1nc(C(N)=O)c(-c2ccc(N3CCNCC3)cc2)o1 [Example R-10, 2-(o-toluidino)-5-(4-(piperazin-1-yl)phenyl)oxazole-4-carboxamide]	–	–
< 10 µM	< 10 µM	NC(=O)c1nc(-c2c(F)cccc2F)oc1Nc1ccc(C2CCNCC2)cc1 [Example Q-46, 2-(2,6-difluorophenyl)-5-(4-(piperidin-4-yl)phenylamino)oxazole-4-carboxamide]	–	–
< 10 µM	< 10 µM	NC(=O)c1nc(-c2c(F)cccc2F)oc1Nc1cccnc1 [Example Q-45, 2-(2,6-difluorophenyl)-5-(pyridin-3-ylamino)oxazole-4-carboxamide]	–	–
